Read-outs that look alike come from different tables or passages of the source.
Tests used:
[1] = biological target: Cbl-b (Homo sapiens (Human), UniProt Q13191); assay: Cbl-b LCK Ub TR-FRET assay (Cbl-b Lck HTRF); assay type: biochemical
Method in brief: (§1)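 Biotin-Cbl-b (16 nM) or biotin-c-Cbl (12 nM) at 2× preincubated with compound 60 min, then His-LCK (120 nM), 1 mM ATP and MgCl2 (2× mix) added for 90 min at RT. Buffer: HEPES pH 7.0, DTT. UBE2D2–HA-ubiquitin transfer read by TR-FRET (665/615 nm); IC50 versus no-LCK and DMSO controls, 10-point dilutions.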

[2] = biological target: c-Cbl (Homo sapiens (Human), UniProt P22681); assay: C-cbl LCK Ub TR-FRET assay (C-cbl Lck HTRF); assay type: biochemical
Method in brief: as §1

[3] = tested on: hWB; assay: IL-2 hWB assay; assay type: cell-based; conditions: Homo sapiens
[4] = Liver microsomes metabolic stability, cynomolgus monkey; assay type: in vitro ADME
Protocol: Metabolic stability of test compounds was evaluated in pooled rat, mouse, dog, and cynomolgus monkey liver microsomes (BD Biosciences, San Jose, CA). The incubation conditions were as follows: 1 μM of the tested compound, 1 mM NADPH, 0.5 mg/mL microsomal protein in 0.1 M potassium phosphate buffer (pH 7.4). Following a 5-minute pre-incubation period, the enzymatic reactions were initiated by the addition of NADPH and test compound to the microsomes diluted in phosphate buffered saline. The mixtures were incubated at 37° C. for 0, 20, 40, and 60 min.
Compound concentrations were assessed by LC-MS/MS. Intrinsic clearance based upon microsomal stability data was determined using a substrate depletion method and scaled to hepatic clearance using the well-stirred model (Obach, R. S.; Baxter, J. G.; Liston, T. E.; Silber, B. M.; Jones, B. C.; MacIntyre, F.; Rance, D. J.; Wastall, P., “The Prediction of Human Pharmacokinetic Parameters from Preclinical and in vitro Metabolism Data”, J. Pharmacol. Exp. Ther., (1997), 283 (1), 46-58).

Chain of Cbl-b (Q13191 40-426): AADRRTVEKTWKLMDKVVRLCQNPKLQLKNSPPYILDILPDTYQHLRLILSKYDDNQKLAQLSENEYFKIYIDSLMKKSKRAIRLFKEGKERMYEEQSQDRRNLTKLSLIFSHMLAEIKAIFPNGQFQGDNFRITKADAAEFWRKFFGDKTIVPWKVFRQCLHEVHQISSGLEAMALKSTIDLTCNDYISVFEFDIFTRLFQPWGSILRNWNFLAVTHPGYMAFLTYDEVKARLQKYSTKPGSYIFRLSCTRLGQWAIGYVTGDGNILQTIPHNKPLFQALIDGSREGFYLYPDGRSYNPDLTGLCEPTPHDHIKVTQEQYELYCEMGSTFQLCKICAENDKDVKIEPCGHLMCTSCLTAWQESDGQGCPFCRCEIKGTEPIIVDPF
Chain of c-Cbl (P22681 47-435): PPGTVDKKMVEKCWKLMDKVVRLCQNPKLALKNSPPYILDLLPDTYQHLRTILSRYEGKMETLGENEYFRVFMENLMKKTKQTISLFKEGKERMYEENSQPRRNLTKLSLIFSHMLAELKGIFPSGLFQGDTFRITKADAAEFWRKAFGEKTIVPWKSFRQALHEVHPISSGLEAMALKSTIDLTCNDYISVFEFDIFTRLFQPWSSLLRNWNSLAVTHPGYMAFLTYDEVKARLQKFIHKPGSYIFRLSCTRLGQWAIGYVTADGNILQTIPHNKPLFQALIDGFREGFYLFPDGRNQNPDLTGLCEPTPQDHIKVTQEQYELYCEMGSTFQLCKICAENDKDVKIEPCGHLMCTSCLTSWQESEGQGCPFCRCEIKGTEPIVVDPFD

Question: For `CC(C)[C@H]1CN(C)CCN1Cc1cc(C(=O)Nc2cccc(C3(Cc4nncn4C)CC(F)(F)C3)c2)nc(C2CC2)c1` [Compound 224, (S)-6-cyclopropyl-N-(3-(3,3-difluoro-1-((4-methyl-4H-1,2,4-triazol-3-yl)methyl)cyclobutyl)phenyl)-4-((2-isopropyl-4-methylpiperazin-1-yl)methyl)picolinamide], which “(fold-selectivity)” value ([1]; Cbl-b and C-Cbl selectivity, Lck HTRF) is on record?
Answer: Its value is “(0.66x)”.

Question: What about the IC50 ([1]; Table 4 comparative data, read-out: Lck IC50) of the same compound?
Answer: Its IC50 is 7.5 nM.

Question: What about the IC50 ([1]; read-out: Cbl-b Lck HTRF IC50) of the same compound?
Answer: Its IC50 is 7.5 nM.

Question: And the “Lck IC50 (select.)” value ([1]; selectivity, Table 4)?
Answer: Its value is 0.68 x.

Question: What about the IC50 [2] of the same compound?
Answer: The IC50 was 5 nM.

Question: And the EC50 [3]?
Answer: Its EC50 is 250 nM.

Question: What about the “LM (H/R/M/D/C)” value [4] of the same compound?
Answer: Its value is 40.

Reference: patent US20240300927A1, “AMIDES AS CBL-B INHIBITORS” (Genentech, Inc., priority 2021, published 2024)
